The subject of assay [1] is HUVECs. Nature of the assay: HUVEC proliferation assay (MTT, 72 hours). It is filed as cell-based, human. The method, then: Human umbilical vein endothelial cells (HUVECs) were isolated from umbilical cords and were cultured in EGM-2 media.
(§1) After incubation cell viability was determined by MTT assay.
(§2) For evaluating anti-proliferative activity of a combination of PTX and DOX, cells were treated with varying concentrations of DOX with a set concentration of PTX or varying concentrations of PTX with a set concentration of DOX.
Same procedure was followed for other drugs and combination treatments.
(§3) In an exemplary procedure, selected inhibition concentration values (e.g., IC40, IC60 and IC80) of PTX, DOX and combinations thereof from a respective cell proliferation assay were collected. The selected inhibition concentration values of DOX and PTX were marked on X and Y axes respectively and a line which represents additive effect was drawn between each inhibitory concentration (IC). The combination index (CI) of each treatment was calculated according to the classic isobologram equation CI=[(D)1/(Dx)1]+[(D)2/(Dx)2].
The effect of PTX at various concentrations (0.0001, 0.001, 0.01, 0.1, 1, 10, 100, 1000, and 10,000 nM), and of doxorubicin at various concentrations (0.001, 0.001, 0.01, 0.1, 1, 10, 100, 1000, 10,000, 100,000 nM) on the proliferation of HUVEC p3 cells was tested. The obtained data is presented in FIG. 1A for PTX and in FIG. 1B for DOX.
For evaluating the effect of the combination treatment, 0.1 or 1 nM DOX with various concentrations of PTX and 0.1 or 1 nM PTX with various concentrations of DOX were tested.
The effect of PTX at various concentrations, TNP-470 at various concentrations and of various combinations of a set concentration of PTX and variable concentrations of TNP-470 and a set concentration of TNP-470 and variable concentrations of PTX, on proliferation of HUVECs, was tested. Similar assays were performed in the presence of 10,000 nM alendronate. The obtained data is presented in FIG. 7A (no alendronate) and in FIG. 7B (in the presence of alendronate).
The effect of the PGA-PTX-DOX conjugate (Route 1, see, FIG. 18) on HUVECs proliferation was tested and compared to the free drugs, each alone and in combination.

The subject of assay [2] is MDA-MB-231 cells. Nature of the assay: MDA-MB-231 cell proliferation assay (72 hours). It is filed as cell-based, human. Particulars: for IC20 / IC 40 / IC 60: MDA-MB-231, single drug. As to the method:
Human MDA-MB-231 cells were purchased from American Tissue Culture Collection (ATCC), and were cultured in DMEM supplemented with 10% FBS, 100 μg/ml penicillin, 100 U/ml streptomycin, 12.5 U/ml nystatin. All Cells were grown at 37° C., 5% CO2.
(§4) In an exemplary procedure, cells were plated onto 96-well plates in appropriate complete medium for each cell line as described above, and incubated for 24 hours (37° C.; 5% CO2). On the following day cells were treated with e.g., paclitaxel at various concentrations (e.g., 0.0001, 0.001, 0.01, 0.1, 1, 10, 100, 1000, 10,000 nM) or, e.g., doxorubicin at various concentrations (e.g., 0.001, 0.001, 0.01, 0.1, 1, 10, 100, 1000, 10,000, 100,000 nM) for 72 hours. After incubation cell viability was determined by MTT assay.
as §2
Selected inhibition concentration values (e.g., IC50, IC40, IC60 and IC80 values (growth inhibition by 50, 40, 60 and 80% respectively) were derived from the obtained growth charts.
as §3
The effect of PTX, DOX and combinations thereof on the proliferation of human MDA-MB-231 cells was tested.
FIG. 6A presents the results obtained for PTX and DOX, each alone, at various concentrations within a range of 0.01-10000 nM, and for various concentrations of PTX with 20 nM DOX, and for various concentrations of DOX with 1 nM PTX. […] Data represents mean±SD.
In order to evaluate the combination treatment effect, data from combination treatment results were collected, analyzed and calculated according to CI equations. Combination treatments I (PTX+DOX 20 nM) and II (DOX+PTX 1 nM) inhibited MDA-MB-231 cells proliferation of IC 20, 40, 60 at 0.8, 4, 25 and 4, 150, 700 nM respectively.
The activity of a PGA-PTX-DOX conjugate (Route 2, see, FIG. 19D) was examined in vitro on proliferation of MDA-MB-231 human breast cancer cells. Cells were incubated with the conjugates PGA-PTX-DOX, PGA-PTX, PGA-DOX and combination of PGA-PTX and PGA-DOX (in the same ratio as on the PGA-PTX-DOX conjugate), the free drugs PTX, DOX and their combination (in the same ratio as on the PGA-PTX-DOX conjugate) and with PGA for 72 hours.

The subject of assay [3] is ES-2 ovarian carcinoma cells. Nature of the assay: ES-2 cell proliferation assay (72 hours). It is filed as cell-based, human. The method, then: ES-2 human ovarian carcinoma cells were purchased from the ATCC.
as §1, §3
The effect of DOX and PTX combinations on viability of ES2 and Saos2 cells was examined. Cells were treated with PTX alone, DOX alone, varying concentrations of DOX with a set concentration of PTX (10 or 50 nM for ES2, 1 nM for Saos2) or varying concentrations of PTX with a set concentration of DOX (10 or 50 nM). IC20, IC40 and IC60 values (growth inhibition by 20, 40 and 60% respectively) were derived from the growth charts and combination index (CI) values were calculated.
The activity of PGA-PTX-DOX conjugate (Route 1, see, FIG. 18) and of PGA-PTX-DOX conjugate (Route 2, see, FIG. 19D) was examined in vitro on proliferation of ES-2 ovarian carcinoma cells.
(§5) The effect of DOX and PTX treatments on proliferation of ES2 and SK N MC cells after sorting to NCAM+/− and/or on unsorted cells was examined, to test whether NCAM+ cells are more resistant to chemotherapeutic drugs.

Assay [4] concerns SK N MC cells. Description: SK N MC cell proliferation assay after sorting to NCAM+/-. It counts as cell-based. As to the method: as §4
Cells were harvested and labeled as described above, and resuspended in the appropriate cell culture medium (according to cell type) with 5% FBS. Cells were filtrated with 100 μm cell strainer before sorting. Sorted cells were collected into tubes containing complete medium with 0.5 mg/ml gentamycin (Biological Industries, Israel). All work was done in sterile conditions.
as §5

Assay [5] has as its system MDA-MB-231 cells. Description: Internalization and intracellular release of DOX, confocal microscopy. It counts as cell-based, human. The settings on record: 400 nM DOX-equivalent. As to the method:
Internalization and intracellular release of DOX from the conjugates was evaluated by confocal microscopy (Leica SP5). MDA-MB-231 cells were incubated with free DOX and DOX-containing conjugates (PGA-DOX, PGA-PTX-DOX) at 400 nM equivalent concentrations for 20 minutes, 2, 6 or 24 hours. Following incubation, cells were washed, fixed with 4% PFA and mounted on glass slides using Prolong® Gold antifade reagent with DAPI (4′-6-Diamidino-2-phenylindole) (Invitrogen) for nucleus. DOX was excited at 488 nm and its emission was recorded at 550-700 nm.

The test system of assay [6] is Saos-2 cells. Nature of the assay: NTP binding to Saos2 cells (confocal microscopy). It is filed as cell-based, human. The settings on record: fluorescently labeled peptides. As to the method:
Cell specificity and uptake of the fluorescently labeled peptides was monitored utilizing a Zeiss Meta LSM 510 confocal imaging system. Cells were plated on glass slides and incubated overnight. The following day cells were incubated with 100 μM of CF-NTP or CF-scrambled peptide for 30 minutes at 37° C., washed several times with PBS, fixated with 4% paraformaldehyde, stained with Hoechst stain and mounted on slides. In order to examine intracellular trafficking of the peptide, cells were incubated with the peptides in serum free medium, washed several times with cold PBS and incubated with […] AlexaFluor 594 human transferrin for 1 h at 37° C. Cells were washed several times with PBS, fixated with 4% PFA, stained with Hoechst stain and mounted on slides.
Binding of NTP (SEQ ID NO:1) to Saos-2 cells, compared to binding of sNTP (SEQ ID NO:2), was examined by confocal microscopy. FITC-labeled targeting peptides were used. […] In experiments with transferrin, peptide was seen as intracellular aggregates or vesicles, though not colocalized with transferrin.

The test system of assay [7] is NCAM-expressing Mel-526 human melanoma cells. Nature of the assay: Binding to NCAM-expressing Mel-526 cells. It counts as cell-based.
In assay [8] the test system is ES2 cells. Nature of the assay: Binding to ES2 cells (FACS). It is filed as cell-based, human. As to the method: Cells were washed with PBS, harvested using a cell scraper and labeled by incubation with APC-conjugated CD-56 antibody (Biolegend) for 45 min at 4° C. in the dark. Cells were washed three times with PBS and filtrated with 100 μm cell strainer (BD Falcon).
Binding of C3 (SEQ ID NO:3) to ES2 cells, and competition of binding of the NCAM-specific antibody APC-conjugated anti-human CD56 (NCAM) (BioLegend) and bFGF was examined by FACS.
PGA and PGA-C3 were labeled with FITC on the N-terminal of the PGA chain. Binding to ES-2 cells was examined by FACS.

Ends that are not written are not given here. PGA = not defined here

For orientation: IC50 means the midpoint of a concentration-inhibition curve. As usually defined, the IC20 is the point of the concentration-response curve where the effect stands at 20%.

Take `COc1cccc2c1C(=O)c1c(O)c3c(c(O)c1C2=O)C[C@@](O)(C(=O)CO)C[C@@H]3O[C@H]1C[C@H](N)[C@H](O)[C@H](C)O1` [DOX, doxorubicin]: the concentration for half-maximal inhibition (IC50) in assay [1] (HUVEC p3, PGA-PTX-DOX is the Route 1 conjugate (FIG. 18)) came out at 7 nM; in assay [1] (HUVEC proliferation, drug alone or varied with a set concentration of the other drug), 40 nM; in assay [3] (ES2 cells sorted NCAM+), 300 nM; in assay [3] (ES2 cells sorted NCAM−), 150 nM; in assay [3] (ES2 cells unsorted), 250 nM; in assay [3] (ES-2, 72 hours, conjugates of Route 2 (FIG. 19D), three separate experiments), 25 nM. Also, the IC50 in assay [4] (SK N MC cells sorted NCAM+) was found to be 90 nM; in assay [4] (SK N MC cells sorted NCAM−), 40 nM; in assay [4] (SK N MC cells unsorted), 50 nM. The IC20 in assay [2] stood at 60 nM. The “IC 40” value in assay [2] turned out to be 250 nM. In addition, the “IC 60” value in assay [2] turned out to be 950 nM. Also, the cell internalization entry in assay [5] is recorded as “rapidly internalized in the cells”. Moreover, the “incubation time after which DOX is accumulated in the nucleus” value in assay [5] was 6 h.

GESDDEND [scrambled peptide]: the binding to cells result in assay [6] is “does not”.

“GASKKPKRNIKA [C3, NCAM targeting peptide C3 with added N-terminal glycine]” yielded a binding in assay [7] of 50%.

On to “CF-labeled C3: C3 (SEQ ID NO:3) labeled at the N-terminal with 5(6)-carboxyfluorescein ({5(6)‑carboxyfluorescein}-GASKKPKRNIKA)”, for which the binding to cells result in assay [8] (ES2, CF-labeled peptide alone) was “bound at levels much higher than NCAM expression”. The “binding when incubated with NCAM antibody or bFGF” value in assay [8] (ES2, competition) is “its binding decreased”.

Turning to “PGA-C3: PGA conjugated to C3 peptide (SEQ ID NO:3) through the N-terminal amine ({PGA}-GASKKPKRNIKA; reading uncertain)”, the binding to cells result in assay [8] (ES-2, FITC-labeled polymers) is “bound more strongly than non-targeted PGA and similarly to free C3 peptide”.

Consider GDDSDEEN [NTP, NCAM-targeting peptide], for which the binding to cells result in assay [6] is recorded as “binds to the cells”.

Regarding `CC(=O)O[C@H]1C(=O)[C@@]2(C)[C@H]([C@H](OC(=O)c3ccccc3)[C@]3(O)C[C@H](OC(=O)[C@H](O)[C@@H](NC(=O)c4ccccc4)c4ccccc4)C(C)=C1C3(C)C)[C@]1(OC(C)=O)CO[C@@H]1C[C@@H]2O` [PTX, Paclitaxel], the IC50 in assay [1] (Homo sapiens, HUVEC, HUVEC p3, PGA-PTX-DOX is the Route 1 conjugate (FIG. 18)) was determined as 1 nM; in assay [1] (Homo sapiens, HUVEC, HUVEC proliferation, drug alone or varied with a set concentration of the other drug), 7 nM; in assay [2] (Homo sapiens, MDA-MB-231, 72 hours, PTX- and DOX-equivalent concentrations, Route 2 conjugate (FIG. 19D)), 2 nM; in assay [3] (Homo sapiens, ES-2, ES2 cells sorted NCAM+) it was 70 nM; in assay [3] (Homo sapiens, ES-2, ES2 cells sorted NCAM−), 90 nM; in assay [3] (Homo sapiens, ES-2, ES2 cells unsorted), 70 nM. The IC50 was 6 nM in assay [3] (Homo sapiens, Ovarian carcinoma cell, 72 h, ES-2, 72 hours, conjugates of Route 2 (FIG. 19D), three separate experiments) and 45 nM in assay [4] (Homo sapiens, SK N MC cells unsorted). Further, the IC20 in assay [2] (Homo sapiens) came out at 2.5 nM. Moreover, the “IC 40” value in assay [2] turned out to be 7 nM. In addition, the “IC 60” value in assay [2] stood at 100 nM.

Consider GASKKPAANIKA [C3ala, control peptide], for which the binding in assay [7] is reported as 20%.

Source of the values: patent US10155047B2, “Polymers having therapeutically active agents conjugated thereto, processes of preparing same and uses thereof” (Ramot at Tel-Aviv University Ltd., priority 2012, dated 2018).
